# Legend:
# [1] = molecular target: T1, Tripartite terminase subunit 3 (Human betaherpesvirus 5, UniProt P16732)
# T1 sequence (P16732 whole entry): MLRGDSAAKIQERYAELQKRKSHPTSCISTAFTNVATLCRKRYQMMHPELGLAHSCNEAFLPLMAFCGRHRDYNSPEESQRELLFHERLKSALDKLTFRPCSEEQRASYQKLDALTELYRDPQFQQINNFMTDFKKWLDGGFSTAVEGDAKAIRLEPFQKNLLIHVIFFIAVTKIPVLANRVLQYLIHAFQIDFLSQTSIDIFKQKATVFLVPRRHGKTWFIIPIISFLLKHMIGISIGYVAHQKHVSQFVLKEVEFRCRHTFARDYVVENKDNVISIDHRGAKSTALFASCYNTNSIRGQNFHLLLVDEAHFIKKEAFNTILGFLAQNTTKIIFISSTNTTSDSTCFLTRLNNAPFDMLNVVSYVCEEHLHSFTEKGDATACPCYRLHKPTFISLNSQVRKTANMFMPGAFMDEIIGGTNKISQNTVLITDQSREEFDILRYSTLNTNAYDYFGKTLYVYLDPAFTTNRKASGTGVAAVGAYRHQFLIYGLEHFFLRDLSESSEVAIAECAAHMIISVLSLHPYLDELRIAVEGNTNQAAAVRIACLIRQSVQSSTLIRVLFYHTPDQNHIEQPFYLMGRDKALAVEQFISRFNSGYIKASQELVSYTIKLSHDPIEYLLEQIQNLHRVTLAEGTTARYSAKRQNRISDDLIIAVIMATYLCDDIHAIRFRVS
# [2] = tested on: HFF; test: Cytotoxicity against HFF cells assessed as cell viability incubated for 168 hrs by MTS-based Cell Titer assay; type: toxicity; conditions: human
# [3] = Aqueous solubility of the compound in DPBS at pH 7.2 incubated for 72 hrs by LC-MS/MS analysis; type: physicochemical
# [4] = Stability of compound in human plasma as compound remaining measured for 6 hrs by LC-MS/MS analysis; type: ADME, cell-free; conditions: read-out: Stability
# [5] = Stability of compound in CD-1 mouse plasma as compound remaining measured for 6 hrs by LC-MS/MS analysis; type: ADME, cell-free; conditions: read-out: Stability
# [6] = human, plasma, 24 h
# [7] = mouse, plasma, 24 h
# [8] = human, microsomes, 1 h
# Description: Stability in human liver microsomes assessed as half life measured upto 60 mins in presence of NADPH by LC-MS/MS analysis
# [9] = mouse, microsomes, 1 h
# Description: Stability in mouse liver microsomes assessed as half life measured upto 60 mins in presence of NADPH by LC-MS/MS analysis
# [10] = Apparent permeability coefficient of the compound incubated for 5 hrs by LC-MS/MS analysis based PAMPA method; type: ADME
Structure (SMILES),IC50 [1] [nM],other results
O=C(O)c1nc(-c2ccsc2)nc(O)c1O,2700,
O=C(O)c1nc(Cc2ccc(F)cc2)[nH]c(=O)c1O,740,
O=C(O)c1nc(-c2cccs2)nc(O)c1O,,CC50 [2]: > 100000 nM; solubility thermodynamic at 72 h [3]: 1480 µM; remaining at 6 h [4]: > 94%; remaining at 6 h [5]: > 94%; t1/2 [6]: > 24 h; t1/2 [7]: > 24 h; t1/2 [8]: > 120 h; t1/2 [9]: > 120 h
COC(=O)c1nc(-c2cccs2)nc(O)c1O,880,permeability [10]: 0.9 10^-6 cm/s
O=C(NCc1ccc(F)cc1)c1nc(-c2cccs2)nc(O)c1O,700,
O=C(NCc1ccc(Cl)cc1)c1nc(-c2cccs2)nc(O)c1O,1300,
Cc1ccc(CNC(=O)c2nc(-c3cccs3)nc(O)c2O)cc1,1900,
COC(=O)c1nc(-c2ccccc2)[nH]c(=O)c1O,1100,
Cc1ccsc1-c1nc(O)c(O)c(C(=O)O)n1,1400,
Cc1nc(C(=O)O)c(O)c(=O)[nH]1,2100,
COC(=O)c1nc(-c2ccc(F)cc2)[nH]c(=O)c1O,860,
O=C(O)c1nc(Cc2ccsc2)[nH]c(=O)c1O,2400,
COC(=O)c1nc(Cc2ccc(Cl)c(Cl)c2)[nH]c(=O)c1O,2100,permeability [10]: 3.1 10^-6 cm/s
Cc1ccc(Cc2nc(C(=O)O)c(O)c(=O)[nH]2)cc1,920,permeability [10]: 0.07 10^-6 cm/s
COC(=O)c1nc(Cc2ccc(Cl)cc2Cl)[nH]c(=O)c1O,5700,
O=C(O)c1nc(-c2ccc(F)cc2)[nH]c(=O)c1O,540,
COC(=O)c1nc(-c2ccco2)[nH]c(=O)c1O,3000,
Cc1nc(C(=O)NCc2ccc(Cl)c(Cl)c2)c(O)c(=O)[nH]1,2800,
O=C(O)c1nc(-c2ccc(-c3ccccc3)cc2)[nH]c(=O)c1O,1500,permeability [10]: 0.06 10^-6 cm/s
O=C(NCc1ccc(F)c(F)c1)c1nc(-c2cccs2)[nH]c(=O)c1O,790,
O=C(O)c1nc(Cc2ccc(F)c(F)c2)[nH]c(=O)c1O,870,
O=C(NCc1ccc(C(F)(F)F)cc1)c1nc(-c2cccs2)[nH]c(=O)c1O,3000,
O=C(O)c1nc(Cc2ccc(Cl)cc2Cl)[nH]c(=O)c1O,3800,
O=C(O)c1nc(Cc2cccs2)[nH]c(=O)c1O,1700,
COC(=O)c1nc(Cc2ccc(F)cc2F)[nH]c(=O)c1O,760,
COC(=O)c1nc(-c2ccc(-c3ccccc3)cc2)[nH]c(=O)c1O,780,
COc1ccc(CNC(=O)c2nc(C)[nH]c(=O)c2O)cc1,590,permeability [10]: 12.4 10^-6 cm/s
O=C(O)c1nc(Cc2ccc(F)cc2F)[nH]c(=O)c1O,1400,
O=C(O)c1nc(Cc2ccc(Cl)c(Cl)c2)nc(O)c1O,670,solubility thermodynamic at 72 h [3]: ≥ 3170 µM; permeability [10]: 0.05 10^-6 cm/s; remaining at 6 h [4]: > 94%; remaining at 6 h [5]: > 94%; t1/2 [6]: > 24 h; t1/2 [7]: > 24 h; t1/2 [8]: > 120 h; t1/2 [9]: > 120 h

# Source: ChEMBL document CHEMBL5154836, “4,5-Dihydroxypyrimidine Methyl Carboxylates, Carboxylic Acids, and Carboxamides as Inhibitors of Human Cytomegalovirus pUL89 Endonuclease” (J Med Chem, 2022)
